Experimental findings from patent publication US4680304A, “Feed compositions containing 2-(α-pyridyl)-Δ^2 -heterocyclic compounds” (SmithKline Beckman Corporation, priority 1985, dated 1987) are described below.

Several values for one entry are separate records, joined by “and”; a condition that tells them apart may be missing. Equal values may be shown once.

For experiment [1], the system named is fermentation in the digestive tract (swine ileal/cecal inoculum). Description: In vitro swine procedure (fistula test; incubation of filtered ileal/cecal inoculum). Further details: species or system swine (Yorkshire barrow). The following applies: 5 hours at 37°.
Experiment [2] in a line: Chick growth study. Format: in vivo, broiler chicks. On the procedure: 512 day old broiler chicks, selected for weight, health and sex, are housed in an environmentally controlled room with temperature at 37.7° and humidity at 40%. Chicks are fed ad libitum. Water is offered ad libitum. A corn or, preferably rye, basal ration is fed during the acclimation period (days 1 and 2). It is, then, mixed with the compound under test or used as a control on days 3-17. Either 8 or 16 chicks are used for each test or control group.

For the compound `Cc1nc(-c2ccccn2)no1`, in experiment [1] (166.67 ppm), the “GLU (glucose)” value is on record as 113 % of control values and the “LYS (lysine)” value is recorded as 110 % of control values. Further, in experiment [2] (8.5 ppm in feed), the “Feed/Gain (3-17 day)” value is reported as 99.2 % of Control and the “Weight (17 day)” value was 102.3 % of Control.

As to `c1ccc(C2=NCCN2)nc1` [2-(2-Pyridyl)-imidazoline], in experiment [2] (50 ppm in feed), the “Feed/Gain (3-17 day)” value is given as 93.0 % of Control and the “Weight (17 day)” value is recorded as 106.2 % of Control.

As to `NC(=NO)c1ccccn1` [2-Amidoximopyridine], in experiment [1] (166.67 ppm), the “LAC (L-lactic acid)” value was 111 % of control values, the “LYS (lysine)” value is recorded as 99 % of control values and the “VFA (total of volatile fatty acids)” value is given as 98 % of control values. Also, in experiment [2] (10 ppm in feed), the “Feed/Gain (3-17 day)” value was 97.0 % of Control and 101.2 % of Control; the “Weight (17 day)” value is 108.5 % of Control and 99.2 % of Control. In experiment [2] (50 ppm in feed), the “Feed/Gain (3-17 day)” value is recorded as 97.3 % of Control and the “Weight (17 day)” value was 103.0 % of Control.

Turning to `CC1(O)CC(C(N)=O)N=C1c1ncccc1O` (stereo not shown) [3,4-dihydro-4-hydroxy-5-(3-hydroxy-2-pyridinyl)-4-methyl-2H-pyrrole-2-carboxamide], the “LYS (lysine)” value in experiment [1] (1.67 ppm) is on record as 75 % of control values; in experiment [1] (16.67 ppm), 82 % of control values; in experiment [1] (entry (a), 166.7 ppm), 136 % of control values; in experiment [1] (entry (b), 166.7 ppm), 142 % of control values. Moreover, the “VFA (total of volatile fatty acids)” value is reported as 103 % of control values in experiment [1] (16.67 ppm); 26 % of control values in experiment [1] (entry (a), 166.7 ppm); 43 % of control values in experiment [1] (entry (b), 166.7 ppm). In addition, the “Feed/Gain (3-17 day)” value in experiment [2] (4.5 ppm in feed) is 98.4 % of Control; in experiment [2] (25 ppm in feed), 92.6 % of Control and 99.9 % of Control. For the same compound, the “Weight (17 day)” value in experiment [2] (4.5 ppm in feed) was 101.0 % of Control; in experiment [2] (25 ppm in feed), 109.4 % of Control and 108.5 % of Control.

In the case of `CC1(C)NN=C(c2ccccn2)N1` [5,5-Dimethyl-3-(2'-pyridyl)-4,5-dihydro-1H-triazole], the “GLU (glucose)” value in experiment [1] (166.67 ppm) is listed as 105 % of control values. Besides, in experiment [2] (9 ppm in feed), the “Feed/Gain (3-17 day)” value is given as 97.2 % of Control and the “Weight (17 day)” value is 103.5 % of Control. Moreover, in experiment [2] (50 ppm in feed), the “Feed/Gain (3-17 day)” value is 103.1 % of Control and the “Weight (17 day)” value was 97.7 % of Control.

In the case of `COC(=O)C1(C)NN=C(c2ccccn2)N1` (stereo not shown) [Methyl 5-methyl-3-(2'-pyridyl)-4,5-dihydro-1H-triazole-5-carboxylate], in experiment [2] (50 ppm in feed), the “Feed/Gain (3-17 day)” value is on record as 91.0 % of Control and the “Weight (17 day)” value is recorded as 108.1 % of Control.

In the case of Virginiamycin [reference compound], the “GLU (glucose)” value in experiment [1] (1.67 ppm) is 131 % of control values; in experiment [1] (16.67 ppm) it was 153 % of control values; in experiment [1] (166.67 ppm), 153 % of control values. In addition, the “LYS (lysine)” value is recorded as 134 % of control values in experiment [1] (1.67 ppm), 212 % of control values in experiment [1] (16.67 ppm) and 289 % of control values in experiment [1] (166.67 ppm). For the same compound, the “VFA (total of volatile fatty acids)” value in experiment [1] (1.67 ppm) is listed as 147 % of control values; in experiment [1] (16.67 ppm) it was 85 % of control values; in experiment [1] (166.67 ppm), 39 % of control values. The “Feed/Gain (3-17 day)” value is listed as 96.5 % of Control in experiment [2] (10 ppm in feed (rye)), 100.4 % of Control in experiment [2] (10 ppm in feed) and 88.5 % of Control in experiment [2] (50 ppm in feed). Further, the entries for the “Weight (17 day)” value in experiment [2] (10 ppm in feed (rye)), in experiment [2] (10 ppm in feed) and in experiment [2] (50 ppm in feed) were 107.1 % of Control, 97.7 % of Control and 127.8 % of Control, respectively.
